Legend:
Assay in all cases: Drug affinity chromatography with c-ponatinib and LC-MS/MS (ponatinib interactome)
Assay type in all cases: binding
[1] = target: T1, proteins of U2OS cell lysate (Homo sapiens, UniProt O00303); details: EIF3F, Eukaryotic translation initiation factor 3 subunit F
T1 construct: Proteins enriched by c-ponatinib from U2OS cell lysate; endogenous in cells; host or cells: U2OS cell lysate
Procedure, shortened: (§1)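 Proteins were identified by nano-UPLC–MS/MS after elution with formic acid and trypsin digestion. They were captured from U2OS lysate (2 mg protein per pulldown, NP-40 buffer) on amine-coupled NHS beads during a 2 h incubation at 4 °C.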

[2] = target: T2, proteins of U2OS cell lysate (Homo sapiens, UniProt O75521); details: ECI2, Enoyl-CoA delta isomerase 2, mitochondrial
T2 construct: Proteins enriched by c-ponatinib from U2OS cell lysate; endogenous in cells; host or cells: U2OS cell lysate
Procedure, shortened: as §1

[3] = target: T3, proteins of U2OS cell lysate (Homo sapiens, UniProt P09038); details: FGF2, Fibroblast growth factor 2
T3 construct: Proteins enriched by c-ponatinib from U2OS cell lysate; endogenous in cells; host or cells: U2OS cell lysate
Procedure, shortened: as §1

[4] = target: T4, proteins of U2OS cell lysate (Homo sapiens, UniProt P10809); details: HSPD1, 60 kDa heat shock protein, mitochondrial
T4 construct: Proteins enriched by c-ponatinib from U2OS cell lysate; endogenous in cells; host or cells: U2OS cell lysate
Procedure, shortened: as §1

[5] = target: T5, proteins of U2OS cell lysate (Homo sapiens, UniProt P13861); details: PRKAR2A, cAMP-dependent protein kinase type II-alpha regulatory subunit
T5 construct: Proteins enriched by c-ponatinib from U2OS cell lysate; endogenous in cells; host or cells: U2OS cell lysate
Procedure, shortened: as §1

[6] = target: T6, proteins of U2OS cell lysate (Homo sapiens, UniProt P21333); details: FLNA, Filamin-A
T6 construct: Proteins enriched by c-ponatinib from U2OS cell lysate; endogenous in cells; host or cells: U2OS cell lysate
Procedure, shortened: as §1

[7] = target: T7, proteins of U2OS cell lysate (Homo sapiens, UniProt P26368); details: U2AF2, Splicing factor U2AF 65 kDa subunit
T7 construct: Proteins enriched by c-ponatinib from U2OS cell lysate; endogenous in cells; host or cells: U2OS cell lysate
Procedure, shortened: as §1

[8] = target: T8, proteins of U2OS cell lysate (Homo sapiens, UniProt P26641); details: EEF1G, Elongation factor 1-gamma
T8 construct: Proteins enriched by c-ponatinib from U2OS cell lysate; endogenous in cells; host or cells: U2OS cell lysate
Procedure, shortened: as §1

[9] = target: T9, proteins of U2OS cell lysate (Homo sapiens, UniProt P28070); details: PSMB4, Proteasome subunit beta type-4
T9 construct: Proteins enriched by c-ponatinib from U2OS cell lysate; endogenous in cells; host or cells: U2OS cell lysate
Procedure, shortened: as §1

[10] = target: T10, proteins of U2OS cell lysate (Homo sapiens, UniProt P33991); details: MCM4, DNA replication licensing factor MCM4
T10 construct: Proteins enriched by c-ponatinib from U2OS cell lysate; endogenous in cells; host or cells: U2OS cell lysate
Procedure, shortened: as §1

[11] = target: T11, proteins of U2OS cell lysate (Homo sapiens, UniProt P48047); details: ATP5O, ATP synthase subunit O, mitochondrial
T11 construct: Proteins enriched by c-ponatinib from U2OS cell lysate; endogenous in cells; host or cells: U2OS cell lysate
Procedure, shortened: as §1

[12] = target: T12, proteins of U2OS cell lysate (Homo sapiens, UniProt P49756); details: RBM25, RNA-binding protein 25
T12 construct: Proteins enriched by c-ponatinib from U2OS cell lysate; endogenous in cells; host or cells: U2OS cell lysate
Procedure, shortened: as §1

[13] = target: T13, proteins of U2OS cell lysate (Homo sapiens, UniProt P60660); details: MYL6, Myosin light polypeptide 6
T13 construct: Proteins enriched by c-ponatinib from U2OS cell lysate; endogenous in cells; host or cells: U2OS cell lysate
Procedure, shortened: as §1

[14] = target: T14, proteins of U2OS cell lysate (Homo sapiens, UniProt P61981); details: YWHAG, 14-3-3 protein gamma
T14 construct: Proteins enriched by c-ponatinib from U2OS cell lysate; endogenous in cells; host or cells: U2OS cell lysate
Procedure, shortened: as §1

[15] = target: T15, proteins of U2OS cell lysate (Homo sapiens, UniProt P78371); details: CCT2, T-complex protein 1 subunit beta
T15 construct: Proteins enriched by c-ponatinib from U2OS cell lysate; endogenous in cells; host or cells: U2OS cell lysate
Procedure, shortened: as §1

[16] = target: T16, proteins of U2OS cell lysate (Homo sapiens, UniProt P78527); details: PRKDC, DNA-dependent protein kinase catalytic subunit
T16 construct: Proteins enriched by c-ponatinib from U2OS cell lysate; endogenous in cells; host or cells: U2OS cell lysate
Procedure, shortened: as §1

[17] = target: T17, proteins of U2OS cell lysate (Homo sapiens, UniProt Q00325); details: SLC25A3, Phosphate carrier protein, mitochondrial
T17 construct: Proteins enriched by c-ponatinib from U2OS cell lysate; endogenous in cells; host or cells: U2OS cell lysate
Procedure, shortened: as §1

[18] = target: T18, proteins of U2OS cell lysate (Homo sapiens, UniProt Q9NTJ3); details: SMC4, Structural maintenance of chromosomes protein 4
T18 construct: Proteins enriched by c-ponatinib from U2OS cell lysate; endogenous in cells; host or cells: U2OS cell lysate
Procedure, shortened: as §1

[19] = target: T19, proteins of U2OS cell lysate (Homo sapiens, UniProt Q9UPT5); details: EXOC7, Exocyst complex component 7
T19 construct: Proteins enriched by c-ponatinib from U2OS cell lysate; endogenous in cells; host or cells: U2OS cell lysate
Procedure, shortened: as §1

T10 sequence (P33991 whole entry): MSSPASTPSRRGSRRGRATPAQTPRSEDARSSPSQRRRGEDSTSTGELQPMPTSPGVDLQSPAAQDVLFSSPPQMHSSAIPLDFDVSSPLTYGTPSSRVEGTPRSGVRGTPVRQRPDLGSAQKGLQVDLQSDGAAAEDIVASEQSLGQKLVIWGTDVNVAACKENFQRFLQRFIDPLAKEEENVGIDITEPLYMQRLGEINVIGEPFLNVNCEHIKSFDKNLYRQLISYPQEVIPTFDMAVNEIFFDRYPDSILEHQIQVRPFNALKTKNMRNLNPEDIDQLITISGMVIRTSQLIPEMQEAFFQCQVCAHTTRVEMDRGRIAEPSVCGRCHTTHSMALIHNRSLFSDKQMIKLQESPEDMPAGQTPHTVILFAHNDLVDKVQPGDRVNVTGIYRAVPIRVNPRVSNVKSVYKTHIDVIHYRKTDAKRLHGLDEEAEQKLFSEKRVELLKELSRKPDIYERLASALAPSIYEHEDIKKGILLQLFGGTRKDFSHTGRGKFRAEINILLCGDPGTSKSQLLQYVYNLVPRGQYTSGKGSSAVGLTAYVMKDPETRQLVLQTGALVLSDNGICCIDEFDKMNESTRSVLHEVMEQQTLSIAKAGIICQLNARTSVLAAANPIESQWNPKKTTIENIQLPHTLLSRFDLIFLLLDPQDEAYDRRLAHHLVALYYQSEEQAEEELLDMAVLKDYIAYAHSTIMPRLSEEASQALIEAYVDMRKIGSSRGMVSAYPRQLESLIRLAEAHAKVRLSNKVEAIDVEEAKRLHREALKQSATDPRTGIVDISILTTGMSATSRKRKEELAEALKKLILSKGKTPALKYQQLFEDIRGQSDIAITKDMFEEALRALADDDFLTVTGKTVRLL
T13 sequence (P60660 whole entry): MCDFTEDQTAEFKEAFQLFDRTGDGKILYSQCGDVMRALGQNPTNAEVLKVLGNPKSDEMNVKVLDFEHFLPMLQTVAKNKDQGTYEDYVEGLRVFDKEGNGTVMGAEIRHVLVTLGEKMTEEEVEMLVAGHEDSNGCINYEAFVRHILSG
T12 sequence (P49756 whole entry): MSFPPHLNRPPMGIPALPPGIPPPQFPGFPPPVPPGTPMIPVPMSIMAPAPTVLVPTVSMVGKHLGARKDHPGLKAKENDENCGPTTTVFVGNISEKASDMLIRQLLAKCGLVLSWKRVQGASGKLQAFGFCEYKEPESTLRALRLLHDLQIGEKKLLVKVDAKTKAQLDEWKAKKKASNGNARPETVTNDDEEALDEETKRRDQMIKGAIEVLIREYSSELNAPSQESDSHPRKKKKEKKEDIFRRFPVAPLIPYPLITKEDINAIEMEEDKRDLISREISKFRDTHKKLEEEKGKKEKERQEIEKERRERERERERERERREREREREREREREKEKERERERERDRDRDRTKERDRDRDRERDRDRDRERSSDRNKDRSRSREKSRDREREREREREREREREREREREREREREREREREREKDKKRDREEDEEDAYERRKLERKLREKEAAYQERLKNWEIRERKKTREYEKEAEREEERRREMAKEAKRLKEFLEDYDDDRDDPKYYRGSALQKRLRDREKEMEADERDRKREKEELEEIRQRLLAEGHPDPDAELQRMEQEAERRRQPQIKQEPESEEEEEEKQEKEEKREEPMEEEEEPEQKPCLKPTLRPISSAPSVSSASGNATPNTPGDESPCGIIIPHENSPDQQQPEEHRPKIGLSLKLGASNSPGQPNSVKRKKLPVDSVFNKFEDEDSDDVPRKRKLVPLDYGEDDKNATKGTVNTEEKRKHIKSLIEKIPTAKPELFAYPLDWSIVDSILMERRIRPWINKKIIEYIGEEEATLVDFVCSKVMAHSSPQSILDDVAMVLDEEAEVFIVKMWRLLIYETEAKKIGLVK
T18 sequence (Q9NTJ3 whole entry): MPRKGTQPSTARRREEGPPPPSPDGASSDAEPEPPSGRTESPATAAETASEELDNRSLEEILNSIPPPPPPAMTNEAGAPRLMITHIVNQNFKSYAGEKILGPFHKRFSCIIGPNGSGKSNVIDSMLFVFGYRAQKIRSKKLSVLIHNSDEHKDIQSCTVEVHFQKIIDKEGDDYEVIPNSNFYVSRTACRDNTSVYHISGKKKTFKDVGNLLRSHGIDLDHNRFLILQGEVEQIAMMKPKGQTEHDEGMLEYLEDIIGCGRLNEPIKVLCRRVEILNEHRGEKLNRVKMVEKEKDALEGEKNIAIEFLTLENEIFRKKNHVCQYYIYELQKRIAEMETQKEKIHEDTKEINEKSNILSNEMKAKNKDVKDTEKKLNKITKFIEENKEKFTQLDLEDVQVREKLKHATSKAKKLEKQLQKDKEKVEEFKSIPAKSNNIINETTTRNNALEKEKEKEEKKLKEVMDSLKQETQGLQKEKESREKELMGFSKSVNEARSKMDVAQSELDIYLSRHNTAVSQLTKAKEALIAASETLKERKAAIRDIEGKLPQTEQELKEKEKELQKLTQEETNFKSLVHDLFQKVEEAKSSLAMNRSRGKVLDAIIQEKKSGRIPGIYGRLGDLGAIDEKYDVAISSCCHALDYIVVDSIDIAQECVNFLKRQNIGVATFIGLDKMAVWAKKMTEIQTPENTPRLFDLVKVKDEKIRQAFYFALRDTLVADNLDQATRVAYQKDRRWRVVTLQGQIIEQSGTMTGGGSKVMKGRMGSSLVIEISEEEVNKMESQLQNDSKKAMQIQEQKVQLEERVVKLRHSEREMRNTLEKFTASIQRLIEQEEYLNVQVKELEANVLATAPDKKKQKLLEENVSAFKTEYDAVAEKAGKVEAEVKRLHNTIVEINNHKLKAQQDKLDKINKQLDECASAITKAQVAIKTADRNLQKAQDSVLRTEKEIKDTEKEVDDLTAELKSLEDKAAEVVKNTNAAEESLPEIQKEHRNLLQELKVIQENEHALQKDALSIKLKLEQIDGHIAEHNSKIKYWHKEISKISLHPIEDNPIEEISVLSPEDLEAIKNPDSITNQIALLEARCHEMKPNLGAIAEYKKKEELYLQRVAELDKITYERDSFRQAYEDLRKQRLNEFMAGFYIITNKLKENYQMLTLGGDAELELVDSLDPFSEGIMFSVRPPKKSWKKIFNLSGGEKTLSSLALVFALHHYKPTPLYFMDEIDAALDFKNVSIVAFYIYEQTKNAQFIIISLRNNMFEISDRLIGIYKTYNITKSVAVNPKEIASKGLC
T8 sequence (P26641 whole entry): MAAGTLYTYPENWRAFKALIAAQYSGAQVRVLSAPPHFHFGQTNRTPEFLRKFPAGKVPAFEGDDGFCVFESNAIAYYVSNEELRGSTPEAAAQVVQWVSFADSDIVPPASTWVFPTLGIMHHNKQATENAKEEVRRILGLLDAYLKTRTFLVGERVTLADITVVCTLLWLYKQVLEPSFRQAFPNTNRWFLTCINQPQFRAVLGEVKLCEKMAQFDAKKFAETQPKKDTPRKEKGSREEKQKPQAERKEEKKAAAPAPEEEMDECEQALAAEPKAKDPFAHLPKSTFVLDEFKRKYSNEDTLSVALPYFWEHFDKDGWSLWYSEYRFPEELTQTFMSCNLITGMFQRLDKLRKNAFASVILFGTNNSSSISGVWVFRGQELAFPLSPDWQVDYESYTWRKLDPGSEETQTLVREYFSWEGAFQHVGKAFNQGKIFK
T15 sequence (P78371 whole entry): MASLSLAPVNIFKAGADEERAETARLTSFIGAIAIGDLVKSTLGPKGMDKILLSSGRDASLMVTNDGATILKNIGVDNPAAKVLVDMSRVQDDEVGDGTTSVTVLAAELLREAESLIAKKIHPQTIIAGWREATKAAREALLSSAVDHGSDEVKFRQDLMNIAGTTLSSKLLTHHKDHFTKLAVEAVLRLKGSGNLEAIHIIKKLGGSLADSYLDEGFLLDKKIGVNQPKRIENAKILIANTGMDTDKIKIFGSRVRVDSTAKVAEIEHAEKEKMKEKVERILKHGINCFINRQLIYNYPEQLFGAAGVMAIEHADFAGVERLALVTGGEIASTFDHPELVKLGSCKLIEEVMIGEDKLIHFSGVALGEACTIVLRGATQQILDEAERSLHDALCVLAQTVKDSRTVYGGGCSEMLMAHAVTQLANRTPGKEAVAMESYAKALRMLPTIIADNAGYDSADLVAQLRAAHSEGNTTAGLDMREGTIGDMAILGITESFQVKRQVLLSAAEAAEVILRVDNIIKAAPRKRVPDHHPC
T14 sequence (P61981 whole entry): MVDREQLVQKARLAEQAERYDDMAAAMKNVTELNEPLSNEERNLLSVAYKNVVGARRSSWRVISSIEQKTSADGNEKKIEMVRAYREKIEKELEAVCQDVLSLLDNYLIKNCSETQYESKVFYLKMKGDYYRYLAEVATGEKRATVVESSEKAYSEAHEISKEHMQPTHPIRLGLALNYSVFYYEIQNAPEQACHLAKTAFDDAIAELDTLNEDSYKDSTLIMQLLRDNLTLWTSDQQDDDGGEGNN
T11 sequence (P48047 24-213): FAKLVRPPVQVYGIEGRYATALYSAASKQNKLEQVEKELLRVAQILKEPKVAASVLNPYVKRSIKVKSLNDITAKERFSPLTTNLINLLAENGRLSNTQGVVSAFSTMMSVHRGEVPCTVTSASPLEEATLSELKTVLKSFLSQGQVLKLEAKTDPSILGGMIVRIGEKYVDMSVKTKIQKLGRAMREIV
T1 sequence (O00303 whole entry): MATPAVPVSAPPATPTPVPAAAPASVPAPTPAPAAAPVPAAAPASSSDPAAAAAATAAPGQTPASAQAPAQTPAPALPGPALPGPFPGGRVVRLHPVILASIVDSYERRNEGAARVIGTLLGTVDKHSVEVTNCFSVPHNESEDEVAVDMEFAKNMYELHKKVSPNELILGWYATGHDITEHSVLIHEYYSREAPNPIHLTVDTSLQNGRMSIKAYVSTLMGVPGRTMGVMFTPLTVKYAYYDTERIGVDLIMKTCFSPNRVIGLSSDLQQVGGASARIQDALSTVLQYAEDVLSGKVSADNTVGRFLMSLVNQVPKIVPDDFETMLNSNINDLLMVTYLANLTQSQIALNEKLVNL

`Cc1ccc(C(=O)Nc2ccc(CN3CCN(C)CC3)c(C(F)(F)F)c2)cc1C#Cc1cnc2cccnn12` [PON] was tested, and the “Average LFQ PON_WT” value [1] was 23.4858, the “Average LFQ PON_WT” value [2] was 24.0947 and the “Average LFQ PON_WT” value [3] was 20.5832. The “Average LFQ PON_WT” value [4] was 21.1431, the “Average LFQ PON_WT” value [5] was 19.7853 and the “Average LFQ PON_WT” value [6] was 25.7064. The “Average LFQ PON_WT” value [7] was 21.5048, the “Average LFQ PON_WT” value [8] was 25.0677 and the “Average LFQ PON_WT” value [9] was 21.0941. For the same compound, the “Average LFQ PON_WT” value [10] was 19.8468, the “Average LFQ PON_WT” value [11] was 24.0207 and the “Average LFQ PON_WT” value [12] was 20.8592. The “Average LFQ PON_WT” value [13] was 23.7934, the “Average LFQ PON_WT” value [14] was 23.8341 and the “Average LFQ PON_WT” value [15] was 24.048. For the same compound, the “Average LFQ PON_WT” value [16] was 25.5794, the “Average LFQ PON_WT” value [17] was 23.3948 and the “Average LFQ PON_WT” value [18] was 21.2975. The “Average LFQ PON_WT” value [19] was 19.8682.

From publication PMC6120666 (The EMBO Journal, 2018)
